Test results from patent publication US20090068290A1, “BIFEPRUNOX DOSES FOR TREATING SCHIZOPHRENIA” (priority 2006, published 2009).

Tests used:
[1] = tested on: patients with chronic schizophrenia; assay: BPRS total and psychosis cluster scores, Clinical Study Four; type: in vivo, human; conditions: FAS, LOCF, ANCOVA
Protocol: (§1) METHODOLOGY: This study was a multinational, multicenter, randomized, double-blind, parallel-group, placebo-controlled, fixed-dose study. The study consisted of a 3- to 6-day antipsychotic-free run-in period, after which patients were randomised to 6 months of double-blind treatment with fixed doses of bifeprunox (20 mg/day (BX20) or 30 mg/day (BX30)) or placebo (PBO). Patients allocated to the BX groups were up-titrated from 0.25 mg/day over 7 days (BX20) or 8 days (BX30), and then continued on these doses for the remainder of the study. […] At predetermined time points, blood samples were obtained for drug concentration analysis of BX and its major metabolites (3′- and 4′-sulfate conjugates of BX), and pharmaco-economic assessments were performed.

[2] = tested on: patients with chronic schizophrenia; assay: PANSS total score, Clinical Study Four; type: in vivo, human; conditions: FAS, ANCOVA; for Adjusted Mean Change from Baseline in PANSS Total Score, Difference to PBO Mean: Week 6 (day 42)
Protocol: as §1

For `O=c1[nH]c2cccc(N3CCN(Cc4cccc(-c5ccccc5)c4)CC3)c2o1` [Bifeprunox, 7-[4-([1,1′-biphenyl]-3-ylmethyl)-1-piperazinyl]-2(3H)-benzoxazolone], the “BPRS psychosis cluster, Adjusted Mean Change from Baseline (LS mean)” value ([1]; Month 6, listed as BX20) was −0.1, the “BPRS total, Adjusted Mean Change from Baseline (LS mean)” value (“BPRS total, Adjusted Mean Change” below) ([1]; Month 6, listed as BX20) was −0.1 and the “BPRS psychosis cluster, Adjusted Mean Change from Baseline (LS mean)” value ([1]; Month 6, listed as BX30) was −0.2. The “BPRS total, Adjusted Mean Change” value ([1]; Month 6, listed as BX30) was 0.5, the “BPRS psychosis cluster, Adjusted Mean Change from Baseline (LS mean)” value ([1]; Week 6, listed as BX20) was −0.8 and the “BPRS total, Adjusted Mean Change” value ([1]; Week 6, listed as BX20) was −2.1. The “BPRS psychosis cluster, Adjusted Mean Change from Baseline (LS mean)” value ([1]; Week 6, listed as BX30) was −0.7, the “BPRS total, Adjusted Mean Change” value ([1]; Week 6, listed as BX30) was −1.3 and the “Adjusted Mean Change from Baseline in PANSS Total Score, Difference to PBO Mean” value ([2]; BX20 (bifeprunox 20 mg/day), LOCF) was −5.07. For the same molecule, the “Adjusted Mean Change from Baseline in PANSS Total Score, Difference to PBO Mean” value ([2]; BX30 (bifeprunox 30 mg/day), LOCF) was −3.71, the “Adjusted Mean Change from Baseline in PANSS Total Score, Least Squares Estimates Mean” value ([2]; Day 7, LOCF, listed as BX20) was −1.89 and the “Change from Baseline in PANSS Total Score, Difference to PBO Mean” value ([2]; Day 7, LOCF, listed as BX20) was −1.30. The “Adjusted Mean Change from Baseline in PANSS Total Score, Least Squares Estimates Mean” value ([2]; Day 7, LOCF, listed as BX30) was −0.73, the “Change from Baseline in PANSS Total Score, Difference to PBO Mean” value ([2]; Day 7, LOCF, listed as BX30) was −0.14 and the “Adjusted Mean Change from Baseline in PANSS Total Score, Least Squares Estimates Mean” value ([2]; Day 7, OC, listed as BX20) was −1.89. The “Change from Baseline in PANSS Total Score, Difference to PBO Mean” value ([2]; Day 7, OC, listed as BX20) was −1.30, the “Adjusted Mean Change from Baseline in PANSS Total Score, Least Squares Estimates Mean” value ([2]; Day 7, OC, listed as BX30) was −0.73 and the “Change from Baseline in PANSS Total Score, Difference to PBO Mean” value ([2]; Day 7, OC, listed as BX30) was −0.14. The “Adjusted Mean Change from Baseline in PANSS Total Score, Least Squares Estimates Mean” value ([2]; Day 7, POCF, listed as BX20) was −2.81, the “Change from Baseline in PANSS Total Score, Difference to PBO Mean” value ([2]; Day 7, POCF, listed as BX20) was −1.33 and the “Adjusted Mean Change from Baseline in PANSS Total Score, Least Squares Estimates Mean” value ([2]; Day 7, POCF, listed as BX30) was −2.23. For the same molecule, the “Change from Baseline in PANSS Total Score, Difference to PBO Mean” value ([2]; Day 7, POCF, listed as BX30) was −0.76, the “Adjusted Mean Change from Baseline in PANSS Total Score, Least Squares Estimates Mean” value ([2]; Day 14, LOCF, listed as BX20) was −3.03 and the “Change from Baseline in PANSS Total Score, Difference to PBO Mean” value ([2]; Day 14, LOCF, listed as BX20) was −2.38. For the same molecule, the “Adjusted Mean Change from Baseline in PANSS Total Score, Least Squares Estimates Mean” value ([2]; Day 14, LOCF, listed as BX30) was −1.45, the “Change from Baseline in PANSS Total Score, Difference to PBO Mean” value ([2]; Day 14, LOCF, listed as BX30) was −0.79 and the “Adjusted Mean Change from Baseline in PANSS Total Score, Least Squares Estimates Mean” value ([2]; Day 14, OC, listed as BX20) was −4.77. The “Change from Baseline in PANSS Total Score, Difference to PBO Mean” value ([2]; Day 14, OC, listed as BX20) was −2.39, the “Adjusted Mean Change from Baseline in PANSS Total Score, Least Squares Estimates Mean” value ([2]; Day 14, OC, listed as BX30) was −4.43 and the “Change from Baseline in PANSS Total Score, Difference to PBO Mean” value ([2]; Day 14, OC, listed as BX30) was −2.05. For the same molecule, the “Adjusted Mean Change from Baseline in PANSS Total Score, Least Squares Estimates Mean” value ([2]; Day 14, POCF, listed as BX20) was −5.48, the “Change from Baseline in PANSS Total Score, Difference to PBO Mean” value ([2]; Day 14, POCF, listed as BX20) was −2.61 and the “Adjusted Mean Change from Baseline in PANSS Total Score, Least Squares Estimates Mean” value ([2]; Day 14, POCF, listed as BX30) was −4.65. For the same molecule, the “Change from Baseline in PANSS Total Score, Difference to PBO Mean” value ([2]; Day 14, POCF, listed as BX30) was −1.78, the “Adjusted Mean Change from Baseline in PANSS Total Score, Least Squares Estimates Mean” value ([2]; Day 28, LOCF, listed as BX20) was “−.327” and the “Change from Baseline in PANSS Total Score, Difference to PBO Mean” value ([2]; Day 28, LOCF, listed as BX20) was −3.34. The “Adjusted Mean Change from Baseline in PANSS Total Score, Least Squares Estimates Mean” value ([2]; Day 28, LOCF, listed as BX30) was −2.13, the “Change from Baseline in PANSS Total Score, Difference to PBO Mean” value ([2]; Day 28, LOCF, listed as BX30) was −2.20 and the “Adjusted Mean Change from Baseline in PANSS Total Score, Least Squares Estimates Mean” value ([2]; Day 28, OC, listed as BX20) was −7.61. The “Change from Baseline in PANSS Total Score, Difference to PBO Mean” value ([2]; Day 28, OC, listed as BX20) was −4.09, the “Adjusted Mean Change from Baseline in PANSS Total Score, Least Squares Estimates Mean” value ([2]; Day 28, OC, listed as BX30) was −7.14 and the “Change from Baseline in PANSS Total Score, Difference to PBO Mean” value ([2]; Day 28, OC, listed as BX30) was −3.63. For the same molecule, the “Adjusted Mean Change from Baseline in PANSS Total Score, Least Squares Estimates Mean” value ([2]; Day 28, POCF, listed as BX20) was −7.74, the “Change from Baseline in PANSS Total Score, Difference to PBO Mean” value ([2]; Day 28, POCF, listed as BX20) was −3.63 and the “Adjusted Mean Change from Baseline in PANSS Total Score, Least Squares Estimates Mean” value ([2]; Day 28, POCF, listed as BX30) was −6.85. The “Change from Baseline in PANSS Total Score, Difference to PBO Mean” value ([2]; Day 28, POCF, listed as BX30) was −2.74, the “Adjusted Mean Change from Baseline in PANSS Total Score, Least Squares Estimates Mean” value ([2]; Day 42, LOCF, listed as BX20) was −4.01 and the “Change from Baseline in PANSS Total Score, Difference to PBO Mean” value ([2]; Day 42, LOCF, listed as BX20) was −5.07. The “Adjusted Mean Change from Baseline in PANSS Total Score, Least Squares Estimates Mean” value ([2]; Day 42, LOCF, listed as BX30) was −2.65, the “Change from Baseline in PANSS Total Score, Difference to PBO Mean” value ([2]; Day 42, LOCF, listed as BX30) was −3.71 and the “Adjusted Mean Change from Baseline in PANSS Total Score, Least Squares Estimates Mean” value ([2]; Day 42, OC, listed as BX20) was −12.40. The “Change from Baseline in PANSS Total Score, Difference to PBO Mean” value ([2]; Day 42, OC, listed as BX20) was −6.14, the “Adjusted Mean Change from Baseline in PANSS Total Score, Least Squares Estimates Mean” value ([2]; Day 42, OC, listed as BX30) was −11.23 and the “Change from Baseline in PANSS Total Score, Difference to PBO Mean” value ([2]; Day 42, OC, listed as BX30) was −4.97. The “Adjusted Mean Change from Baseline in PANSS Total Score, Least Squares Estimates Mean” value ([2]; Day 42, POCF, listed as BX20) was −9.40, the “Change from Baseline in PANSS Total Score, Difference to PBO Mean” value ([2]; Day 42, POCF, listed as BX20) was −4.32 and the “Adjusted Mean Change from Baseline in PANSS Total Score, Least Squares Estimates Mean” value ([2]; Day 42, POCF, listed as BX30) was −8.12. For the same molecule, the “Change from Baseline in PANSS Total Score, Difference to PBO Mean” value ([2]; Day 42, POCF, listed as BX30) was −3.05, the “Adjusted Mean Change from Baseline in PANSS Total Score, Least Squares Estimates Mean” value ([2]; Day 63, LOCF, listed as BX20) was −3.22 and the “Change from Baseline in PANSS Total Score, Difference to PBO Mean” value ([2]; Day 63, LOCF, listed as BX20) was −5.47. The “Adjusted Mean Change from Baseline in PANSS Total Score, Least Squares Estimates Mean” value ([2]; Day 63, LOCF, listed as BX30) was −2.44, the “Change from Baseline in PANSS Total Score, Difference to PBO Mean” value ([2]; Day 63, LOCF, listed as BX30) was −4.68 and the “Adjusted Mean Change from Baseline in PANSS Total Score, Least Squares Estimates Mean” value ([2]; Day 63, OC, listed as BX20) was −12.85. For the same molecule, the “Change from Baseline in PANSS Total Score, Difference to PBO Mean” value ([2]; Day 63, OC, listed as BX20) was −4.52 and the “Adjusted Mean Change from Baseline in PANSS Total Score, Least Squares Estimates Mean” value ([2]; Day 63, OC, listed as BX30) was −12.45.
